{"source": "paper PMC8177795", "about": "(Cancer Science, 2021)", "experiment": "Safety and tolerability", "assay_type": "in vivo, Japanese patients", "conditions": "for Overall safety and tolerability: adult Japanese patients with r/r B‐cell malignancies", "note": "“Also recorded” adds a separate entry of the source.", "data": [{"smiles": "CC#CC(=O)N1CCC[C@H]1c1nc(-c2ccc(C(=O)Nc3ccccn3)cc2)c2c(N)nccn12", "note": "[acalabrutinib]", "values": [{"measurement": "Overall safety and tolerability", "setting": "100 mg BID", "value": "safe and well‐tolerated"}, {"measurement": "Overall safety and tolerability", "setting": "100 mg BID, listed as Acalabrutinib", "value": "generally safe and well‐tolerated"}, {"measurement": "Dose‐limiting toxicities (DLTs)", "setting": "100 mg BID, part 1", "value": "No DLTs were observed"}, {"measurement": "AE of clinical interest: Anemia", "setting": "Part 1 (N = 6)", "value": "2 (33.3) n (%)"}, {"measurement": "AE of clinical interest: Atrial fibrillation", "setting": "Part 1 (N = 6)", "value": "0 n (%)"}, {"measurement": "AE of clinical interest: Cardiac events", "setting": "Part 1 (N = 6)", "value": "0 n (%)"}, {"measurement": "AE of clinical interest: Hemorrhage", "setting": "Part 1 (N = 6)", "value": "0 n (%)"}, {"measurement": "AE of clinical interest: Hepatotoxicity", "setting": "Part 1 (N = 6)", "value": "0 n (%)"}, {"measurement": "AE of clinical interest: Infections", "setting": "Part 1 (N = 6)", "value": "6 (100.0) n (%)"}, {"measurement": "AE of clinical interest: Interstitial lung disease/pneumonitis", "setting": "Part 1 (N = 6)", "value": "1 (16.7) n (%)"}, {"measurement": "AE of clinical interest: Leukopenia", "setting": "Part 1 (N = 6)", "value": "1 (16.7) n (%)"}, {"measurement": "AE of clinical interest: Neutropenia", "setting": "Part 1 (N = 6)", "value": "1 (16.7) n (%)"}, {"measurement": "AE of clinical interest: Other hemorrhage", "setting": "Part 1 (N = 6)", "value": "0 n (%)"}, {"measurement": "AE of clinical interest: Other leukopenia", "setting": "Part 1 (N = 6)", "value": "0 n (%)"}, {"measurement": "AE of clinical interest: Second primary malignancies (excl. nonmelanoma skin cancer)", "setting": "Part 1 (N = 6)", "value": "1 (16.7) n (%)"}, {"measurement": "AE of clinical interest: Second primary malignancy", "setting": "Part 1 (N = 6)", "value": "1 (16.7) n (%)"}, {"measurement": "AE of clinical interest: Thrombocytopenia", "setting": "Part 1 (N = 6)", "value": "1 (16.7) n (%)"}, {"measurement": "AE of clinical interest: Tumor lysis syndrome", "setting": "Part 1 (N = 6)", "value": "0 n (%)"}, {"measurement": "Patients with any AE of clinical interest", "setting": "Part 1 (N = 6)", "value": "6 (100.0) n (%)"}, {"measurement": "Patients with any SAE", "setting": "Part 1 (N = 6)", "value": "3 (50.0) n (%)"}, {"measurement": "SAE: Abdominal pain upper", "setting": "Part 1 (N = 6)", "value": "0 n (%)"}, {"measurement": "SAE: Anemia", "setting": "Part 1 (N = 6)", "value": "1 (16.7) n (%)"}, {"measurement": "SAE: Blood and lymphatic system disorders", "setting": "Part 1 (N = 6)", "value": "1 (16.7) n (%)"}, {"measurement": "SAE: Colon cancer", "setting": "Part 1 (N = 6)", "value": "1 (16.7) n (%)"}, {"measurement": "SAE: Gastrointestinal disorders", "setting": "Part 1 (N = 6)", "value": "0 n (%)"}, {"measurement": "SAE: Infections and infestations", "setting": "Part 1 (N = 6)", "value": "1 (16.7) n (%)"}, {"measurement": "SAE: Neoplasms benign, malignant, and unspecified (incl. cysts and polyps)", "setting": "Part 1 (N = 6)", "value": "1 (16.7) n (%)"}, {"measurement": "SAE: Pneumonia", "setting": "Part 1 (N = 6)", "value": "1 (16.7) n (%)"}, {"measurement": "AE of clinical interest", "setting": "Total (N = 25)", "value": "95 Total number of AEs"}, {"measurement": "AE of clinical interest: Anemia", "setting": "Total (N = 25)", "value": "6 (24.0) n (%)"}, {"measurement": "AE of clinical interest: Atrial fibrillation", "setting": "Total (N = 25)", "value": "1 (4.0) n (%)"}, {"measurement": "AE of clinical interest: Cardiac events", "setting": "Total (N = 25)", "value": "1 (4.0) n (%)"}, {"measurement": "AE of clinical interest: Hemorrhage", "setting": "Total (N = 25)", "value": "8 (32.0) n (%)"}, {"measurement": "AE of clinical interest: Hepatotoxicity", "setting": "Total (N = 25)", "value": "3 (12.0) n (%)"}, {"measurement": "AE of clinical interest: Infections", "setting": "Total (N = 25)", "value": "16 (64.0) n (%)"}, {"measurement": "AE of clinical interest: Interstitial lung disease/pneumonitis", "setting": "Total (N = 25)", "value": "1 (4.0) n (%)"}, {"measurement": "AE of clinical interest: Leukopenia", "setting": "Total (N = 25)", "value": "7 (28.0) n (%)"}, {"measurement": "AE of clinical interest: Neutropenia", "setting": "Total (N = 25)", "value": "6 (24.0) n (%)"}, {"measurement": "AE of clinical interest: Other hemorrhage", "setting": "Total (N = 25)", "value": "8 (32.0) n (%)"}, {"measurement": "AE of clinical interest: Other leukopenia", "setting": "Total (N = 25)", "value": "3 (12.0) n (%)"}, {"measurement": "AE of clinical interest: Second primary malignancies (excl. nonmelanoma skin cancer)", "setting": "Total (N = 25)", "value": "1 (4.0) n (%)"}, {"measurement": "AE of clinical interest: Second primary malignancy", "setting": "Total (N = 25)", "value": "1 (4.0) n (%)"}, {"measurement": "AE of clinical interest: Thrombocytopenia", "setting": "Total (N = 25)", "value": "5 (20.0) n (%)"}, {"measurement": "AE of clinical interest: Tumor lysis syndrome", "setting": "Total (N = 25)", "value": "1 (4.0) n (%)"}, {"measurement": "Patients with any AE of clinical interest", "setting": "Total (N = 25)", "value": "22 (88.0) n (%)"}, {"measurement": "Patients with any SAE", "setting": "Total (N = 25)", "value": "6 (24.0) n (%)"}, {"measurement": "SAE: Abdominal pain upper", "setting": "Total (N = 25)", "value": "1 (4.0) n (%)"}, {"measurement": "SAE: Anemia", "setting": "Total (N = 25)", "value": "1 (4.0) n (%)"}, {"measurement": "SAE: Blood and lymphatic system disorders", "setting": "Total (N = 25)", "value": "1 (4.0) n (%)"}, {"measurement": "SAE: Colon cancer", "setting": "Total (N = 25)", "value": "1 (4.0) n (%)"}, {"measurement": "SAE: Gastrointestinal disorders", "setting": "Total (N = 25)", "value": "1 (4.0) n (%)"}, {"measurement": "SAE: Infections and infestations", "setting": "Total (N = 25)", "value": "3 (12.0 n (%)"}, {"measurement": "SAE: Neoplasms benign, malignant, and unspecified (incl. cysts and polyps)", "setting": "Total (N = 25)", "value": "1 (4.0) n (%)"}, {"measurement": "SAE: Pneumonia", "setting": "Total (N = 25)", "value": "3 (12.0) n (%)"}, {"measurement": "AEs of clinical interest, patients", "setting": "all 25 treated patients", "value": 88, "unit": "%"}, {"measurement": "AEs resulting in treatment discontinuation or death", "setting": "all 25 treated patients", "value": "No AEs resulted in treatment discontinuation or death; also recorded: No AEs with the outcome of death or AEs/SAEs leading to treatment discontinuation were reported"}, {"measurement": "Grade 4 AEs, patients", "setting": "all 25 treated patients", "value": 20, "unit": "%"}, {"measurement": "Headache (any AE), patients", "setting": "all 25 treated patients", "value": 32, "unit": "%"}, {"measurement": "Rash (any AE), patients", "setting": "all 25 treated patients", "value": 28, "unit": "%"}, {"measurement": "SAEs related to treatment, patients", "setting": "all 25 treated patients", "value": 16, "unit": "%"}, {"measurement": "Serious adverse events (SAEs), patients", "setting": "all 25 treated patients", "value": 24, "unit": "%"}, {"measurement": "Treatment‐related adverse events, patients", "setting": "all 25 treated patients", "value": 88, "unit": "%"}, {"measurement": "Treatment‐related headache, patients", "setting": "all 25 treated patients", "value": 28, "unit": "%"}, {"measurement": "Treatment‐related purpura, patients", "setting": "all 25 treated patients", "value": 24, "unit": "%"}, {"measurement": "AE of clinical interest: Anemia", "setting": "r/r CLL/SLL cohort (N = 9)", "value": "2 (22.2) n (%)"}, {"measurement": "AE of clinical interest: Atrial fibrillation", "setting": "r/r CLL/SLL cohort (N = 9)", "value": "0 n (%)"}, {"measurement": "AE of clinical interest: Cardiac events", "setting": "r/r CLL/SLL cohort (N = 9)", "value": "0 n (%)"}, {"measurement": "AE of clinical interest: Hemorrhage", "setting": "r/r CLL/SLL cohort (N = 9)", "value": "4 (44.4) n (%)"}, {"measurement": "AE of clinical interest: Hepatotoxicity", "setting": "r/r CLL/SLL cohort (N = 9)", "value": "1 (11.1) n (%)"}, {"measurement": "AE of clinical interest: Infections", "setting": "r/r CLL/SLL cohort (N = 9)", "value": "6 (66.7) n (%)"}, {"measurement": "AE of clinical interest: Interstitial lung disease/pneumonitis", "setting": "r/r CLL/SLL cohort (N = 9)", "value": "0 n (%)"}, {"measurement": "AE of clinical interest: Leukopenia", "setting": "r/r CLL/SLL cohort (N = 9)", "value": "3 (33.3) n (%)"}, {"measurement": "AE of clinical interest: Neutropenia", "setting": "r/r CLL/SLL cohort (N = 9)", "value": "3 (33.3) n (%)"}, {"measurement": "AE of clinical interest: Other hemorrhage", "setting": "r/r CLL/SLL cohort (N = 9)", "value": "4 (44.4) n (%)"}]}]}
